Measurements taken from patent US10640486B2, “Heteroarylcarboxamide derivatives as plasma kallikrein inhibitors” (Boehringer Ingelheim International GmbH, priority 2015, dated 2020).

Target: human Plasma Kallikrein (KLKB1) (Homo sapiens (Human), UniProt P03952)
Assay: Inhibition of KLKB1 endpoint assay
Assay type: biochemical
Conditions: fluorogenic substrate H-Pro-Phe-Arg-AMC, 1 hr at Room Temperature, read-out: IC50 measurements for the inhibition of human Plasma Kallikrein (KLKB1)
Procedure: The ability of compounds of Formula I to inhibit plasma kallikrein (KLKB1), Factor XIIa (FXIIa), Factor XIa (FXIa), Factor Xa (FXa), Factor IIa (alpha-thrombin; FIIa), plasmin, trypsin, tissue kallikrein 1 (KLK1), Factor VIIa (FVIIa), or FVIIa complexed with Tissue Factor, phospholipids and CaCl2 (FVIIa/TF/PL/CaCl2) was determined using the following biochemical assays in assay buffer (100 mM Tris, 150 mM NaCL, adjusted to a pH of 7.8 with HCl, and containing 0.1% (w/v) BSA and 0.05% (v/v) Tween20) in the presence of 1% (v/v) DMSO:
Evaluation of the Inhibition of KLKB1 Using an Endpoint Assay
Subsequently, PPACK II (Calbiochem) was added as a stop solution to achieve a final concentration of 1 μM and fluorescence was measured using an Envision Reader (PerkinElmer) with the wavelength excitation setting of 355 nm and the wavelength emission setting of 460 nm.
The IC50 values were obtained with the aid of the inhibition of KLKB1 endpoint assay described above.

Chain of human Plasma Kallikrein (KLKB1) (P03952 391-638): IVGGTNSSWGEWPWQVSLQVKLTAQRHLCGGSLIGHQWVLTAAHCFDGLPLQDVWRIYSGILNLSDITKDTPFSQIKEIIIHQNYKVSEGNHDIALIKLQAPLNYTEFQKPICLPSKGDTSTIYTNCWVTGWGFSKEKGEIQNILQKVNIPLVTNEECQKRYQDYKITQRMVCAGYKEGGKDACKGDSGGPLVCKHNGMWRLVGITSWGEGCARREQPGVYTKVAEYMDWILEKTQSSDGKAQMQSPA
Chain of human Plasma Kallikrein (KLKB1) (P03952 20-390 partner): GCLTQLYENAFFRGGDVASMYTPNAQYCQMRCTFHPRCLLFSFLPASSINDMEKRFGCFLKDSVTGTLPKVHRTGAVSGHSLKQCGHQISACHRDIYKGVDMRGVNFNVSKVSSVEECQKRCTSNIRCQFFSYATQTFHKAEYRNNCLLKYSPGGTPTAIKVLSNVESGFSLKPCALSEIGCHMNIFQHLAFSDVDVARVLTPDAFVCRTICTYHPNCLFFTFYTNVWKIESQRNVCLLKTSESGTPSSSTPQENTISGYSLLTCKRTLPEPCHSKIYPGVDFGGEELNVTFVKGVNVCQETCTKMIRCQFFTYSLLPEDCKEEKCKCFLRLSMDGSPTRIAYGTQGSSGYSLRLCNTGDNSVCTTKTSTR

## Nc1nccc2c1CCC2NC(=O)c1cnn(Cc2ccc(CN3C[C@@H]4C[C@@H]4C3=O)cc2)c1 (single isomer, unassigned) [Example 48]
  IC50: 69 nM

## Nc1nccc2c1CCC2NC(=O)c1cnn(Cc2ccc(CN3C[C@@H]4C[C@@H]4C3=O)cc2)c1 (single isomer, unassigned) [Example 49]
  IC50: 2 nM

## Nc1nccc2c1CCC2NC(=O)c1cn(Cc2ccc(CN3C[C@@H]4C[C@@H]4C3=O)cc2)nc1C(F)(F)F (single isomer, unassigned) [Example 50]
  IC50: 1 nM

## Nc1nccc2c1CCC2NC(=O)c1cn(Cc2ccc(CN3C[C@@H]4C[C@@H]4C3=O)cc2)nc1C(F)(F)F (single isomer, unassigned) [Example 51]
  IC50: 89 nM

## Nc1nccc2c1CC[C@H]2NC(=O)c1cnn(Cc2ccc(CN3CC4CC4C3=O)c(C(F)(F)F)c2)c1 (single isomer, unassigned) [Example 52]
  IC50: 41 nM

## Nc1nccc2c1CC[C@H]2NC(=O)c1cnn(Cc2ccc(CN3CC4CC4C3=O)c(C(F)(F)F)c2)c1 (single isomer, unassigned) [Example 53]
  IC50: 1 nM

## Nc1nccc2c1CCC2NC(=O)c1cnn(Cc2ccc(CN3C[C@H]4C[C@H]4C3=O)cc2)c1 (single isomer, unassigned) [Example 54]
  IC50: 46 nM

## Nc1nccc2c1CCC2NC(=O)c1cnn(Cc2ccc(CN3C[C@H]4C[C@H]4C3=O)cc2)c1 (single isomer, unassigned) [Example 55]
  IC50: 490 nM

## Cc1cc(Cn2cc(C(=O)N[C@@H]3CCc4c3ccnc4N)nn2)ccc1N1CCN2CCCCC2C1=O (single isomer, unassigned) [Example 56]
  IC50: 1200 nM

## Cc1cc(Cn2cc(C(=O)N[C@@H]3CCc4c3ccnc4N)nn2)ccc1N1CCN2CCCCC2C1=O (single isomer, unassigned) [Example 57]
  IC50: 6200 nM

## Cc1cc(Cn2cc(C(=O)N[C@@H]3CCc4c3ccnc4N)nn2)ccc1N1CCN2CCCC2C1=O (single isomer, unassigned) [Example 58]
  IC50: 1600 nM

## Cc1cc(Cn2cc(C(=O)N[C@@H]3CCc4c3ccnc4N)nn2)ccc1N1CCN2CCCC2C1=O (single isomer, unassigned) [Example 59]
  IC50: 2200 nM

## Cc1cc(Cn2cc(C(=O)N[C@@H]3CCc4nc(N)ccc43)cn2)ccc1CN1CC2CC2C1=O (single isomer, unassigned) [Example 67]
  IC50: 470 nM

## Cc1cc(Cn2cc(C(=O)N[C@@H]3CCc4nc(N)ccc43)cn2)ccc1CN1CC2CC2C1=O (single isomer, unassigned) [Example 68]
  IC50: 10 nM

## CC(c1ccc(N2CC3CC3C2)nc1)n1cc(C(=O)N[C@@H]2CCc3c2ccnc3N)cn1 (single isomer, unassigned) [Example 72]
  IC50: 10 nM

## CC(c1ccc(N2CC3CC3C2)nc1)n1cc(C(=O)N[C@@H]2CCc3c2ccnc3N)cn1 (single isomer, unassigned) [Example 73]
  IC50: 6 nM

## Nc1ccc2c(n1)CC[C@H]2NC(=O)c1cnn(Cc2ccc(CN3C[C@H]4C[C@H]4C3=O)cc2)c1 [Example 1, 1-[4-((1R,5S)-2-Oxo-3-aza-bicyclo[3.1.0]hex-3-ylmethyl)-benzyl]-1H-pyrazole-4-carboxylic acid ((R)-2-amino-6,7-dihydro-5H-[1]pyrindin-5-yl)-amide]
  IC50: 530 nM

## Nc1ccc2c(n1)CCC2NC(=O)c1cnn(Cc2ccc(N3CCN4CCCC4C3)cc2)c1 (stereo not shown) [Example 2]
  IC50: 2100 nM

## Nc1ccc2c(n1)CC[C@H]2NC(=O)c1cnn(Cc2ccc(CN3C[C@@H]4C[C@@H]4C3=O)cc2)c1 [Example 3]
  IC50: 17 nM

## Nc1ccc2c(n1)CCC2NC(=O)c1cn(Cc2ccc(CN3CC4CC4C3=O)cc2)nc1C(F)(F)F (stereo not shown) [Example 4]
  IC50: 63 nM

## Nc1nccc2c1CCC2NC(=O)c1cnn(Cc2ccc(CN3CC4CC4C3=O)cc2)c1 (stereo not shown) [Example 5]
  IC50: 10 nM

## Nc1cc2c(cn1)CCC2NC(=O)c1cnn(Cc2ccc(CN3CC4CC4C3=O)cc2)c1 (stereo not shown) [Example 6]
  IC50: 71 nM

## Nc1ccc2c(n1)CC[C@H]2NC(=O)c1cn(Cc2ccc(CN3C[C@H]4C[C@H]4C3=O)cc2)nc1C(F)(F)F [Example 7]
  IC50: 420 nM

## Nc1ccc2c(n1)CC[C@H]2NC(=O)c1cn(Cc2ccc(CN3C[C@@H]4C[C@@H]4C3=O)cc2)nc1C(F)(F)F [Example 8]
  IC50: 14 nM

## Nc1ccc2c(n1)CCC2NC(=O)c1cn(Cc2ccc(N3CCN4CCCCC4C3=O)cc2)nn1 (stereo not shown) [Example 9]
  IC50: 3200 nM

## Nc1ccc2c(n1)CCC2NC(=O)c1cn(Cc2ccc(Cn3cc4c(n3)CCOC4)cc2)nn1 (stereo not shown) [Example 10]
  IC50: 560 nM

## Nc1ccc2c(n1)CCC2NC(=O)c1cn(Cc2ccc(CN3CCN4C(=O)CCCC4C3)cc2)nn1 (stereo not shown) [Example 11]
  IC50: > 10000 nM

## Nc1nccc2c1C(NC(=O)c1cn(Cc3ccc(N4CCN5CCCCC5C4=O)cc3)nn1)CC2 (stereo not shown) [Example 12]
  IC50: > 10000 nM

## Nc1cc2c(cn1)C(NC(=O)c1cn(Cc3ccc(N4CCN5CCCCC5C4=O)cc3)nn1)CC2 (stereo not shown) [Example 13]
  IC50: > 10000 nM

## Nc1ccc2c(n1)CCC2NC(=O)c1cn(Cc2ccc(CN3CCN4CCCC4C3=O)cc2)nn1 (stereo not shown) [Example 14]
  IC50: 5900 nM

## Nc1ccc2c(n1)CCC2NC(=O)c1cnn(Cc2ccc(CN3CC4CC4C3=O)cc2)c1 (stereo not shown) [Example 15]
  IC50: 81 nM

## Cc1nn(Cc2ccc(CN3CC4CC4C3=O)cc2)cc1C(=O)NC1CCc2nc(N)ccc21 (stereo not shown) [Example 16]
  IC50: 85 nM

## Cc1cc(N)nc2c1C(NC(=O)c1cnn(Cc3ccc(CN4CC5CC5C4=O)cc3)c1)CC2 (stereo not shown) [Example 17]
  IC50: 42 nM

## Cc1cc(Cn2cc(C(=O)NC3CCc4nc(N)ccc43)nn2)ccc1N1CCN2CCCCC2C1=O (stereo not shown) [Example 18]
  IC50: 1200 nM

## Cc1cc(N)nc2c1C(NC(=O)c1cn(Cc3ccc(N4CCN5CCCCC5C4=O)cc3)nn1)CC2 (stereo not shown) [Example 19]
  IC50: 2600 nM

## Nc1ccc2c(n1)CC[C@H]2NC(=O)c1cnn(Cc2ccc(CN3CC4CC4C3=O)c(C(F)(F)F)c2)c1 (stereo partly shown) [Example 22]
  IC50: 19 nM

## Nc1nccc2c1CC[C@H]2NC(=O)c1cnn(Cc2ccc(CN3CC4CC4CC3=O)cc2)c1 (stereo partly shown) [Example 23]
  IC50: 2 nM

## Nc1cc(C(F)(F)F)c2c(n1)CCC2NC(=O)c1cnn(Cc2ccc(CN3CC4CC4C3=O)cc2)c1 (stereo not shown) [Example 24]
  IC50: 3300 nM

## Nc1ccc2c(n1)CCC2NC(=O)c1cn(Cc2ccc(-n3cc4c(n3)CCOC4)cc2)nn1 (stereo not shown) [Example 27]
  IC50: > 10000 nM

## Nc1ccc2c(n1)CCC2NC(=O)c1cn(Cc2ccc(C3CC4CCCN4C3=O)cc2)nn1 (stereo not shown) [Example 29]
  IC50: 2200 nM

## Nc1ccc2c(n1)CC[C@H]2NC(=O)c1cn(Cc2ccc(N3CC4CC4C3)nc2)nn1 (stereo partly shown) [Example 32]
  IC50: 24 nM

## Nc1nccc2c1CC[C@H]2NC(=O)c1cn(Cc2ccc(N3CC4CC4C3)nc2)nn1 (stereo partly shown) [Example 33]
  IC50: 2 nM

## Nc1nccc2c1CC[C@H]2NC(=O)c1cn(Cc2ccc(N3CC(=O)N4CCCC4C3)nc2)nn1 (stereo partly shown) [Example 34]
  IC50: 390 nM

## Nc1nccc2c1CC[C@H]2NC(=O)c1cn(Cc2ccc(N3CCN4C(=O)COCC4C3)nc2)nn1 (stereo partly shown) [Example 35]
  IC50: 600 nM

## Nc1nccc2c1CC[C@H]2NC(=O)c1cnn(Cc2ccc(N3CC4CC4C3)nc2C(F)(F)F)c1 (stereo partly shown) [Example 36]
  IC50: 1 nM

## Nc1ccc2c(n1)CC[C@H]2NC(=O)c1cnn(Cc2ccc(N3CC4CC4C3)nc2C(F)(F)F)c1 (stereo partly shown) [Example 37]
  IC50: 8 nM

## Nc1nccc2c1CC[C@H]2NC(=O)c1cn(Cc2ccc(N3CC4CC4C3)nc2C(F)(F)F)nn1 (stereo partly shown) [Example 38]
  IC50: 1 nM

## Nc1ccc2c(n1)CC[C@H]2NC(=O)c1cn(Cc2ccc(N3CC4CC4C3)nc2C(F)(F)F)nn1 (stereo partly shown) [Example 39]
  IC50: 14 nM

## Nc1ccc2c(n1)CC[C@H]2NC(=O)c1cnn(Cc2cnc(N3CC4CC4C3)cc2C(F)(F)F)c1 (stereo partly shown) [Example 40]
  IC50: 9 nM

## Nc1nccc2c1CC[C@H]2NC(=O)c1cnn(Cc2cnc(N3CC4CC4C3)cc2C(F)(F)F)c1 (stereo partly shown) [Example 41]
  IC50: 1 nM

## Nc1nccc2c1CC[C@H]2NC(=O)c1cn(Cc2cnc(N3CC4CC4C3)cc2C(F)(F)F)nn1 (stereo partly shown) [Example 42]
  IC50: 1 nM

## Nc1ccc2c(n1)CC[C@H]2NC(=O)c1cn(Cc2cnc(N3CC4CC4C3)cc2C(F)(F)F)nn1 (stereo partly shown) [Example 43]
  IC50: 13 nM

## Cc1cc(N2CC3CC3C2)ncc1Cn1cc(C(=O)N[C@@H]2CCc3nc(N)ccc32)cn1 (stereo partly shown) [Example 44]
  IC50: 30 nM

## Cc1cc(N2CC3CC3C2)ncc1Cn1cc(C(=O)N[C@@H]2CCc3c2ccnc3N)cn1 (stereo partly shown) [Example 45]
  IC50: 4 nM

## Cc1cc(N2CC3CC3C2)ncc1Cn1cc(C(=O)N[C@@H]2CCc3nc(N)ccc32)nn1 (stereo partly shown) [Example 46]
  IC50: 38 nM

## Cc1cc(N2CC3CC3C2)ncc1Cn1cc(C(=O)N[C@@H]2CCc3c2ccnc3N)nn1 (stereo partly shown) [Example 47]
  IC50: 4 nM

## Nc1ccc2c(n1)CCC2NC(=O)c1cn(Cc2ccc(CN3CC4CCCN4C3=O)cc2)nn1 (stereo not shown) [Example 61, 1-[4-(3-Oxo-tetrahydro-pyrrolo[1,2-c]imidazol-2-ylmethyl)-benzyl]-1H-[1,2,3]triazole-4-carboxylic acid (2-amino-6,7-dihydro-5H-[1]pyrindin-5-yl)-amide]
  IC50: 340 nM

## Nc1ccc2c(n1)CCC2NC(=O)c1cn(Cc2ccc(CN3CC4CC4C3=O)cc2)nn1 (stereo not shown) [Example 62, 1-[4-(2-Oxo-3-aza-bicyclo[3.1.0]hex-3-ylmethyl)-benzyl]-1H-[1,2,3]triazole-4-carboxylicacid (2-amino-6,7-dihydro-5H-[1]pyrindin-5-yl)-amide]
  IC50: 410 nM
